Measurements published in patent US10335399B2, “Chromane, isochromane and dihydroisobenzofuran derivatives as mGluR2—negative allosteric modulators, compositions, and their use” (Merck Sharp & Dohme Corp., priority 2016, dated 2019).

biological target: recombinant human mGluR2 (Homo sapiens (Human), UniProt Q14416); test: FLIPR Ca2+ mobilization assay: inhibition of glutamate-dependent mGluR2 activity; assay type: cell-based; details: CHO dhfr- cells stably expressing recombinant human mGluR2 and Gα16, Fluo-4 AM, FLIPR384; inhibition of response to 2,500 nM glutamate
Sequence (Q14416 19-872): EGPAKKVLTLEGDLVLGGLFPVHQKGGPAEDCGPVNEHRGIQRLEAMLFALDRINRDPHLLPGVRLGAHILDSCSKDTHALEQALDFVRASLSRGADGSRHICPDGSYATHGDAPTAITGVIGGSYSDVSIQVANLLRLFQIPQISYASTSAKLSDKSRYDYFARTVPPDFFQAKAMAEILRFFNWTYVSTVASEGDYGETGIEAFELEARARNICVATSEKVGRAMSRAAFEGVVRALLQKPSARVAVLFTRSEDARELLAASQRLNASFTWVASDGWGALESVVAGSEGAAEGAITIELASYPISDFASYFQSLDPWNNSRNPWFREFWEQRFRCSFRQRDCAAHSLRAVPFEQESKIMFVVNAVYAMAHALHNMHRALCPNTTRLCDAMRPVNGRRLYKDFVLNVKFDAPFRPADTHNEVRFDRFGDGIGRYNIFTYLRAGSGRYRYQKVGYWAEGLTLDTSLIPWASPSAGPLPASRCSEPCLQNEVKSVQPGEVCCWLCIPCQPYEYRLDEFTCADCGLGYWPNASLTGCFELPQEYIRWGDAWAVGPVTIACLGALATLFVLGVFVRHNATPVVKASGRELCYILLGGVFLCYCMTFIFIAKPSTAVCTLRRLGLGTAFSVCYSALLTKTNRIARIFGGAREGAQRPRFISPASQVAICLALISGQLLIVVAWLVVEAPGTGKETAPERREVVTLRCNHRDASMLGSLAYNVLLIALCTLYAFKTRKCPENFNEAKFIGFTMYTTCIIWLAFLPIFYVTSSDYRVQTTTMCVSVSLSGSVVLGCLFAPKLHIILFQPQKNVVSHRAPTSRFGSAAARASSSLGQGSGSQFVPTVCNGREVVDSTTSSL
Method: Inhibition constants (IC50s; the concentration of compound required to provide 50% of maximal activity) are determined as follows. The compounds of the invention were tested in a fluorescence laser imaging plate reader based assay. This assay is a common functional assay to monitor Ca^2+ mobilization in whole cells expressing recombinant receptor coupled with a promiscuous G-protein. CHO (Chinese hamster ovary) dhfr− cells stably expressing recombinant human mGluR2 and Gα16 loaded with Fluo-4 AM (Invitrogen, Carlsbad Calif., USA) were treated with various concentrations of each of the tested compounds of the invention and the Ca^2+ response was monitored on a FLIPR384 instrument (Molecular Devices, Sunnydale Calif., USA). […] The maximum calcium response at each concentration of compound for agonist or antagonist were plotted as dose responses and the curves were fitted with a four parameter logistic equation giving IC50 and Hill coefficient using the iterative non-linear curve fitting software ADA (Merck & Co., Inc.). Data in the following table lists the activity of each compound to inhibit glutamate-dependent mGluR2 activity in this cellular assay.

| Compound | IC50 |
| --- | --- |
| NC(=O)c1cc(-c2ccc(F)cc2F)c2c(n1)O[C@@H](CF)CC2 (single isomer, unassigned) [Example 3-6B] | 10 nM |
| NC(=O)c1cc(-c2ccc(F)cc2F)c2c(n1)COCC2 [Example 1-1, 4-(2,4-difluorophenyl)-5,8-dihydro-6H-pyrano[3,4-b]pyridine-2-carboxamide] | 277 nM |
| Cn1cc(-c2cc(C(N)=O)nc3c2CC2CCC3O2)cn1 (single isomer, unassigned) [Example 1-4B, (6S,9R)- or (6R,9S)-4-(1-methyl-1H-pyrazol-4-yl)-6,7,8,9-tetrahydro-5H-6,9-epoxycyclo-hepta[b]pyridine-2-carboxamide] | 1770 nM |
| CC(C)[C@@H]1CCc2c(-c3ccc(F)cc3F)cc(C(N)=O)nc2O1 (single isomer, unassigned) [Example 2-4A] | 20 nM |
| C[C@@H]1Cc2c(-c3ccc(F)cc3F)cc(C(N)=O)nc2O[C@@H]1CO [Example 2-2A, (2S,3R)-5-(2,4-difluorophenyl)-2-(hydroxymethyl)-3-methyl-3,4-dihydro-2H-pyrano[2,3-b]pyridine-7-carboxamide] | 195 nM |
| NC(=O)c1cc(-c2ccc(F)cc2F)c2c(n1)[C@H]1CC[C@@H](C2)O1 [Example 1-2A, (6S,9R)-4-(2,4-difluorophenyl)-6,7,89-tetrahydro-5H-6,9-epoxycyclohepta[b]pyridine-2-carboxamide] | 376 nM |
| C[C@H]1CCc2c(-c3ccc(F)cc3F)cc(C(N)=O)nc2O1 (single isomer, unassigned) [Example 2-6B] | 26 nM |
| COC[C@H]1CCc2c(-c3ccc(F)cc3F)cc(C(N)=O)nc2O1 (single isomer, unassigned) [Example 3-5B] | 27 nM |
| NC(=O)c1cc(-c2ccc(F)cc2F)c2c(n1)O[C@H](CF)CC2 (single isomer, unassigned) [Example 3-6A] | 52 nM |
| CN(C[C@H]1CCc2c(-c3ccc(F)cc3F)cc(C(N)=O)nc2O1)CC(F)(F)F (single isomer, unassigned) [Example 4-1B] | 74 nM |
| CN(C[C@@H]1CCc2c(-c3ccc(F)cc3F)cc(C(N)=O)nc2O1)CC(F)(F)F (single isomer, unassigned) [Example 4-1A] | 25 nM |
| NC(=O)c1cc(-c2ncc(F)cc2F)c2c(n1)[C@@H]1CC[C@H](C2)O1 (single isomer, unassigned) [Example 1-6B] | 1800 nM |
| C[C@H]1Cc2c(-c3ccc(F)cc3F)cc(C(N)=O)nc2O[C@@H]1COC(F)F (single isomer, unassigned) [Example 3-9B] | 19 nM |
| NC(=O)c1cc(-c2ccc(F)cc2F)c2c(n1)O[C@H](CNCC(F)(F)F)CC2 [Example 4-2A, (S)-5-(2,4-difluoropheny)-2-(((2,2,2-trifluoroethyl)amino)methyl)-3,4-dihydro-2H-pyrano[2,3-b]pyridine-7-carboxamide] | 21 nM |
| NC(=O)c1cc(-c2cnn(C(F)F)c2)c2c(n1)C1CCC(C2)O1 (single isomer, unassigned) [Example 1-5A, (6R,9S)- or (6S,9R)-4-(1-(difluoromethyl)-1H-pyrazol-4-yl)-6,7,8,9-tetrahydro-5H-6,9-epoxycyclo-hepta[b]pyridine-2-carboxamide] | > 3000 nM |
| NC(=O)c1cc(-c2ccc(F)cc2F)c2c(n1)O[C@@H](COC(F)F)CC2 [Example 3-1A, (R)-2-((difluoromethoxy)methyl)-5-(2,4-difluorophenyl)-3,4-dihydro-2H-pyrano[2,3-b]pyridine-7-carboxamide] | 7 nM |
| NC(=O)c1cc(-c2ccc(F)cc2F)c2c(n1)O[C@@H](C1CC1)CC2 [Example 2-3A, (R)-2-cyclopropyl-5-(2,4-difluorophenyl)-3,4-dihydro-2H-pyrano[2,3-b]pyridine-7-carboxamide] | 20 nM |
| C[C@@H](OC(F)F)[C@@H]1CCc2c(-c3ccc(F)cc3F)cc(C(N)=O)nc2O1 [Example 2-9B, (S)-2-((R)-1-(difluoromethoxy)ethyl)-5-(2,4-difluorophenyl)-3,4-dihydro-2H-pyrano[2,3-b]pyridine-7-carboxamide] | 114 nM |
| NC(=O)c1cc(-c2ccc(F)cc2F)c2c(n1)[C@H]1CC[C@@H]2O1 (single isomer, unassigned) [Example 5-1A] | 159 nM |
| C[C@@H]1CCc2c(-c3ccc(F)cc3F)cc(C(N)=O)nc2O1 (single isomer, unassigned) [Example 2-6A] | 10 nM |
| C[C@H]1Cc2c(-c3ccc(F)cc3F)cc(C(N)=O)nc2O[C@H]1CO [Example 2-2D, (2R,3S)-5-(2,4-difluorophenyl)-2-(hydroxmethyl)-3-methyl-3,4-dihydro-2H-pyrano[2,3-b]pyridine-7-carboxamide] | 81 nM |
| C[C@@H](OC(F)F)[C@H]1CCc2c(-c3ccc(F)cc3F)cc(C(N)=O)nc2O1 [Example 2-9D, (R)-2-((R)-1-(difluoromethoxy)ethyl)-5-(2,4-difluorophenyl)-3,4-dihydro-2H-pyrano[2,3-b]pyridine-7-carboxamide] | 57 nM |
| NC(=O)c1cc(-c2ccc(Cl)cc2F)c2c(n1)[C@@H]1CC[C@H](C2)O1 (single isomer, unassigned) [Example 1-3B, (6R,9S)- or (6S,9R)-4-(4-chloro-2-fluorophenyl)-6,7,8,9-tetrahydro-5H-6,9-epoxycyclo-hepta[b]pyridine-2-carboxamide] | 12 nM |
| C[C@]1(COC(F)F)CCc2c(-c3ccc(F)cc3F)cc(C(N)=O)nc2O1 (single isomer, unassigned) [Example 2-8B] | 14 nM |
| C[C@H](OC(F)F)[C@@H]1CCc2c(-c3ccc(F)cc3F)cc(C(N)=O)nc2O1 (single isomer, unassigned) [Example 2-9A] | 18 nM |
| NC(=O)c1cc(-c2ccc(F)cc2)c2c(n1)OC(COC(F)F)CC2 (single isomer, unassigned) [Example 3-2A, (S)- or (R)-2-((difluoro-methoxy)methyl)-5-(4-fluorophenyl)-3,4-dihydro-2H-pyrano[2,3-b]pyridine-7-carboxamide] | 18 nM |

The next lines start with the values.

| IC50 | Compound |
| --- | --- |
| 86 nM | NC(=O)c1cc(-c2ccc(F)cc2)c2c(n1)OC(COC(F)F)CC2 (single isomer, unassigned) [Example 3-2B, (R)- or (S)-2-((difluoro-methoxy)methyl)-5-(4-fluorophenyl)-3,4-dihydro-2H-pyrano[2,3-b]pyridine-7-carboxamide] |
| 26 nM | COC[C@@H]1CCc2c(-c3ccc(F)cc3F)cc(C(N)=O)nc2O1 (single isomer, unassigned) [Example 3-5A] |
| 172 nM | NC(=O)c1cc(-c2ncc(Cl)cc2F)c2c(n1)[C@@H]1CC[C@H](C2)O1 (single isomer, unassigned) [Example 1-7B] |
| 6 nM | CC1(C)CCc2c(-c3ccc(F)cc3F)cc(C(N)=O)nc2O1 [Example 2-5, 5-(2,4-difluorophenyl)-2,2-dimethyl-3,4-dihydro-2H-pyrano[2,3-b]pyridine-7-carboxamide] |
| 18 nM | NC(=O)c1cc(-c2ccc(F)cc2F)c2c(n1)O[C@@H](C(F)F)CC2 [Example 3-7A, (R)-2-(difluoromethyl)-5-(2,4-difluorophenyl)-3,4-dihydro-2H-pyrano[2,3-b]pyridine-7-carboxamide] |
| 7 nM | C[C@@H]1Cc2c(-c3ccc(F)cc3F)cc(C(N)=O)nc2O[C@@H]1COC(F)F (single isomer, unassigned) [Example 3-9A] |
| 1490 nM | NC(=O)c1cc(-c2cnn(C(F)F)c2)c2c(n1)OC(COC(F)F)CC2 (single isomer, unassigned) [Example 3-4B, (R)- or (S)-2-((difluoro-methoxy)methyl)-5-(1-(difluoromethyl)-1H-pyrazol-4-yl)-3,4-dihydro-2H-pyrano[2,3-b]pyridine-7-carboxamide] |
| 35 nM | C[C@@H]1Cc2c(-c3ccc(F)cc3F)cc(C(N)=O)nc2O[C@H]1CO [Example 2-2C, (2R,3R)-5-(2,4-difluorophenyl)-2-(hydroxymethyl)-3-methyl-3,4-dihydro-2H-pyrano[2,3-b]pyridine-7-carboxamide] |
| > 3000 nM | NC(=O)c1cc(-c2ncc(F)cc2F)c2c(n1)[C@H]1CC[C@@H](C2)O1 (single isomer, unassigned) [Example 1-6A] |
| 90 nM | NC(=O)c1cc(-c2ccc(F)cc2F)c2c(n1)O[C@H](C(F)F)CC2 [Example 3-7B, (S)-2-(difluoromethyl)-5-(2,4-difluorophenyl)-3,4-dihydro-2H-pyrano[2,3-b]pyridine-7-carboxamide] |
| 536 nM | Cc1ncc(-c2cc(C(N)=O)nc3c2CCC(COC(F)F)O3)s1 (single isomer, unassigned) [Example 3-3A, (S)- or (R)-2-((difluoro-methoxy)methyl)-5-(2-methylthiazol-5-yl)-3,4-dihydro-2H-pyrano[2,3-b]pyridine-7-carboxamide] |
| 21 nM | NC(=O)c1cc(-c2ccc(F)cc2F)c2c(n1)[C@@H]1CC[C@H](C2)O1 (single isomer, unassigned) [Example 1-2B] |
| 500 nM | NC(=O)c1cc(-c2ccc(F)cc2F)c2c(n1)[C@@H]1CC[C@H]2O1 (single isomer, unassigned) [Example 5-1B] |
| 326 nM | NC(=O)c1cc(-c2cnn(C(F)F)c2)c2c(n1)C1CCC(C2)O1 (single isomer, unassigned) [Example 1-5B, (6S,9R)- or (6R,9S)-4-(1-(difluoromethyl)-1H-pyrazol-4-yl)-6,7,8,9-tetrahydro-5H-6,9-epoxycyclo-hepta[b]pyridine-2-carboxamide] |
